Data from the supplement of paper PMC10307832.

Tests used:
Assay in all cases: relative viability (nuclei count vs DMSO), 5 days (fraction); higher = more cells survive
NCI-H1915 = test system: NCI-H1915
Outline: (§1)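 The day after seeding in 1536-well plates, lung cancer cell lines were treated by pin tool with a single drug, or with a fixed anchor-drug dose together with five library-drug doses (not always all listed) in √10 steps. After 5 days, a combined fix-and-stain solution (final 0.05% Triton X-100, 1% formaldehyde, 1 ug/ml Hoechst) was added. Nuclei counted on 4× images gave relative viability as treated counts over vehicle counts, reported as the median of duplicate plates.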

NCI-H661 = test system: NCI-H661
Outline: as §1

NCI-H596 = test system: NCI-H596
Outline: as §1

NCI-H727 = test system: NCI-H727
Outline: as §1

LXF-289 = test system: LXF-289
Outline: as §1

NCI-H3122 = test system: NCI-H3122
Outline: as §1

NCI-H1792 = test system: NCI-H1792
Outline: as §1

LCLC-103H = test system: LCLC-103H
Outline: as §1

PC-14 = test system: PC-14
Outline: as §1

NCI-H1651 = test system: NCI-H1651
Outline: as §1

NCI-H441 = test system: NCI-H441
Outline: as §1

NCI-H520 = test system: NCI-H520
Outline: as §1

NCI-H1355 = test system: NCI-H1355
Outline: as §1

NCI-H322M = test system: NCI-H322M
Outline: as §1

NCI-H460 = test system: NCI-H460
Outline: as §1

NCI-H1563 = test system: NCI-H1563
Outline: as §1

NCI-H2347 = test system: NCI-H2347
Outline: as §1

RERF-LC-KJ = test system: RERF-LC-KJ
Outline: as §1

NCI-H1755 = test system: NCI-H1755
Outline: as §1

Compound `COc1cc2nccc(Oc3ccc(NC(=O)Nc4cc(C)on4)c(Cl)c3)c2cc1OC` [Tivozanib] + CC(C)C[C@H](NC(=O)[C@H](Cc1ccccc1)NC(=O)c1cnccn1)B(O)O [Bortezomib] (partner 0.002 µM) has a relative viability (NCI-H1915; first compound 0.005 µM) of 0.945, a relative viability (NCI-H1915; first compound 0.01581 µM) of 0.986 and a relative viability (NCI-H1915; first compound 0.05 µM) of 0.952. For the same compound, the relative viability (NCI-H1915; first compound 0.1581 µM) was 0.921, the relative viability (NCI-H1915; first compound 0.5 µM) was 0.884 and the relative viability (NCI-H661; first compound 0.005 µM) was 0.682. It also gave a relative viability (NCI-H661; first compound 0.01581 µM) of 0.818, a relative viability (NCI-H661; first compound 0.05 µM) of 0.753 and a relative viability (NCI-H661; first compound 0.1581 µM) of 0.717. It also gave a relative viability (NCI-H661; first compound 0.5 µM) of 0.85, a relative viability (NCI-H596; first compound 0.005 µM) of 1.03 and a relative viability (NCI-H596; first compound 0.01581 µM) of 0.887. For the same compound, the relative viability (NCI-H596; first compound 0.05 µM) was 0.918, the relative viability (NCI-H596; first compound 0.1581 µM) was 0.993 and the relative viability (NCI-H596; first compound 0.5 µM) was 1.08. It also gave a relative viability (NCI-H727; first compound 0.005 µM) of 0.701, a relative viability (NCI-H727; first compound 0.01581 µM) of 0.818 and a relative viability (NCI-H727; first compound 0.05 µM) of 0.772. For the same compound, the relative viability (NCI-H727; first compound 0.5 µM) was 0.873, the relative viability (LXF-289; first compound 0.005 µM) was 0.952 and the relative viability (LXF-289; first compound 0.01581 µM) was 0.956. For the same compound, the relative viability (LXF-289; first compound 0.05 µM) was 0.959, the relative viability (LXF-289; first compound 0.1581 µM) was 1.03 and the relative viability (LXF-289; first compound 0.5 µM) was 0.964. The relative viability (NCI-H3122; first compound 0.005 µM) was 0.99, the relative viability (NCI-H3122; first compound 0.01581 µM) was 1.02 and the relative viability (NCI-H3122; first compound 0.05 µM) was 1.08. For the same compound, the relative viability (NCI-H3122; first compound 0.1581 µM) was 1.12, the relative viability (NCI-H3122; first compound 0.5 µM) was 1.04 and the relative viability (NCI-H1792; first compound 0.005 µM) was 0.961. For the same compound, the relative viability (NCI-H1792; first compound 0.01581 µM) was 0.967, the relative viability (NCI-H1792; first compound 0.05 µM) was 0.965 and the relative viability (NCI-H1792; first compound 0.1581 µM) was 0.989. It also gave a relative viability (NCI-H1792; first compound 0.5 µM) of 0.947, a relative viability (LCLC-103H; first compound 0.005 µM) of 0.964 and a relative viability (LCLC-103H; first compound 0.01581 µM) of 1.01. The relative viability (LCLC-103H; first compound 0.05 µM) was 1.21, the relative viability (LCLC-103H; first compound 0.1581 µM) was 1.04 and the relative viability (LCLC-103H; first compound 0.5 µM) was 0.967. For the same compound, the relative viability (PC-14; first compound 0.005 µM) was 0.821, the relative viability (PC-14; first compound 0.01581 µM) was 0.847 and the relative viability (PC-14; first compound 0.05 µM) was 0.99. It also gave a relative viability (PC-14; first compound 0.1581 µM) of 0.811, a relative viability (PC-14; first compound 0.5 µM) of 0.812 and a relative viability (NCI-H1651; first compound 0.005 µM) of 0.895. It also gave a relative viability (NCI-H1651; first compound 0.01581 µM) of 0.985, a relative viability (NCI-H1651; first compound 0.05 µM) of 1.02 and a relative viability (NCI-H1651; first compound 0.1581 µM) of 0.865. The relative viability (NCI-H1651; first compound 0.5 µM) was 0.986, the relative viability (NCI-H441; first compound 0.005 µM) was 0.43 and the relative viability (NCI-H441; first compound 0.01581 µM) was 0.332. It also gave a relative viability (NCI-H441; first compound 0.05 µM) of 0.332, a relative viability (NCI-H441; first compound 0.1581 µM) of 0.453 and a relative viability (NCI-H441; first compound 0.5 µM) of 0.34. The relative viability (NCI-H520; first compound 0.005 µM) was 0.575, the relative viability (NCI-H520; first compound 0.01581 µM) was 0.693 and the relative viability (NCI-H520; first compound 0.05 µM) was 0.645. For the same compound, the relative viability (NCI-H520; first compound 0.1581 µM) was 0.519, the relative viability (NCI-H520; first compound 0.5 µM) was 0.605 and the relative viability (NCI-H1355; first compound 0.005 µM) was 1.09. It also gave a relative viability (NCI-H1355; first compound 0.01581 µM) of 1.17, a relative viability (NCI-H1355; first compound 0.05 µM) of 1.26 and a relative viability (NCI-H1355; first compound 0.5 µM) of 1.14. The relative viability (NCI-H322M; first compound 0.005 µM) was 1.24, the relative viability (NCI-H322M; first compound 0.01581 µM) was 1.21 and the relative viability (NCI-H322M; first compound 0.05 µM) was 1.18. It also gave a relative viability (NCI-H322M; first compound 0.1581 µM) of 1.05, a relative viability (NCI-H322M; first compound 0.5 µM) of 1.28 and a relative viability (NCI-H460; first compound 0.005 µM) of 1.13. It also gave a relative viability (NCI-H460; first compound 0.01581 µM) of 1.04, a relative viability (NCI-H460; first compound 0.05 µM) of 1 and a relative viability (NCI-H460; first compound 0.1581 µM) of 1.12. It also gave a relative viability (NCI-H460; first compound 0.5 µM) of 1.03, a relative viability (NCI-H1563; first compound 0.005 µM) of 0.766 and a relative viability (NCI-H1563; first compound 0.01581 µM) of 0.964. The relative viability (NCI-H1563; first compound 0.05 µM) was 0.896, the relative viability (NCI-H1563; first compound 0.1581 µM) was 0.776 and the relative viability (NCI-H1563; first compound 0.5 µM) was 0.829. It also gave a relative viability (NCI-H2347; first compound 0.005 µM) of 0.875, a relative viability (NCI-H2347; first compound 0.01581 µM) of 0.818 and a relative viability (NCI-H2347; first compound 0.05 µM) of 1.18. The relative viability (NCI-H2347; first compound 0.5 µM) was 0.986, the relative viability (RERF-LC-KJ; first compound 0.005 µM) was 1.11 and the relative viability (RERF-LC-KJ; first compound 0.01581 µM) was 1.06. It also gave a relative viability (RERF-LC-KJ; first compound 0.05 µM) of 1.11, a relative viability (RERF-LC-KJ; first compound 0.1581 µM) of 0.83 and a relative viability (RERF-LC-KJ; first compound 0.5 µM) of 1.03. The relative viability (NCI-H1755; first compound 0.005 µM) was 0.911, the relative viability (NCI-H1755; first compound 0.01581 µM) was 0.935 and the relative viability (NCI-H1755; first compound 0.05 µM) was 1.01. For the same compound, the relative viability (NCI-H1755; first compound 0.1581 µM) was 0.577 and the relative viability (NCI-H1755; first compound 0.5 µM) was 0.86.
